ChEMBL document CHEMBL3352261, “Discovery of inhibitors of the mitotic kinase TTK based on N-(3-(3-sulfamoylphenyl)-1H-indazol-5-yl)-acetamides and carboxamides” (Bioorg Med Chem, 2014)

Tests used:
[1] = biological target: T1, Dual specificity protein kinase TTK (Homo sapiens, UniProt P33981); experiment: Inhibition of SUMO-tagged human TTK (1-275 residues) compound pre-incubated for 15 mins prior ATP addition by MBP-based assay
T1 sequence (P33981 whole entry): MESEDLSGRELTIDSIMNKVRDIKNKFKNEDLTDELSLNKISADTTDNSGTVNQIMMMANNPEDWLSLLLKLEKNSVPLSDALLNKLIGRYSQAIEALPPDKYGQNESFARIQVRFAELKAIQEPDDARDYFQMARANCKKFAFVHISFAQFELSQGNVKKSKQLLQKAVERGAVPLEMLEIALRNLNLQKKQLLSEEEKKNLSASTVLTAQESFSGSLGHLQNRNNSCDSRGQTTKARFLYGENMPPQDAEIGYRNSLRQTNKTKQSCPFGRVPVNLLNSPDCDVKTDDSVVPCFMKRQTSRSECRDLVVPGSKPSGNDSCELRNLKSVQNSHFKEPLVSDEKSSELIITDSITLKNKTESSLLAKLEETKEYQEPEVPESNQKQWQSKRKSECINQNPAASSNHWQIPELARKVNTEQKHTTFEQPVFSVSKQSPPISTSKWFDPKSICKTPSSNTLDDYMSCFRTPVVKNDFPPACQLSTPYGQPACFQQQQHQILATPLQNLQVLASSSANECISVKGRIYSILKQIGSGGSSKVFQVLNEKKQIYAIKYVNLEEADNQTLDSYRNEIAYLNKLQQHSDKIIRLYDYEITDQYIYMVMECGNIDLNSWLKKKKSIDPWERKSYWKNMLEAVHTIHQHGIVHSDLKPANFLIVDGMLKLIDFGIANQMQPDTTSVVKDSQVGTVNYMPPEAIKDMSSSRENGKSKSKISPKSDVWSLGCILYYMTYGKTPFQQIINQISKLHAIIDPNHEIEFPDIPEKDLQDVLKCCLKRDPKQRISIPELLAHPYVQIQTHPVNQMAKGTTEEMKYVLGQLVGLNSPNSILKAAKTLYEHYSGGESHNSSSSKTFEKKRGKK

[2] = Growth inhibition of human HCT116 cells after 5 days by SRB assay; format: functional; settings: HCT-116, 120 h
MDA-MB-468 = experiment: Growth inhibition of human MDA-MB-468 cells after 5 days by SRB assay; format: functional; settings: MDA-MB-468, 120 h
A549 = experiment: Growth inhibition of human A549 cells after 5 days by SRB assay; format: functional; settings: A549, 120 h
[3] = biological target: T1, Dual specificity protein kinase TTK; experiment: Inhibition of GST-fused full length human TTK compound pre-incubated for 15 mins prior ATP addition by MBP-based assay

| IC50 [1] [nM] | GI50 (MDA-MB-468) [nM] | GI50 (A549) [nM] | IC50 [3] [nM] | SMILES | GI50 [2] [nM] |
| --- | --- | --- | --- | --- | --- |
| 640 | – | – | – | CC(=O)Nc1ccc2[nH]nc(-c3cccc(S(N)(=O)=O)c3)c2c1 | – |
| 310 | – | – | – | NS(=O)(=O)c1cccc(-c2n[nH]c3ccc(NC(=O)C4(c5ccccc5)CC4)cc23)c1 | 7300 |
| 39 | – | – | – | NS(=O)(=O)c1cccc(-c2n[nH]c3ccc(NC(=O)Cc4ccccc4)cc23)c1 | 21000 |
| 390 | – | – | – | NS(=O)(=O)c1cccc(-c2n[nH]c3ccc(NC(=O)Nc4ccccc4)cc23)c1 | 41000 |
| 25 | – | – | – | Cc1ccccc1CC(=O)Nc1ccc2[nH]nc(-c3cccc(S(N)(=O)=O)c3)c2c1 | 1800 |
| 16 | – | – | – | NS(=O)(=O)c1cccc(-c2n[nH]c3ccc(NC(=O)Cc4cccs4)cc23)c1 | 2900 |
| 14 | 1400 | 800 | – | CCOC(C(=O)Nc1ccc2[nH]nc(-c3cccc(S(N)(=O)=O)c3)c2c1)c1ccccc1 (racemic) | 400 |
| 340 | – | – | – | NS(=O)(=O)c1cccc(-c2n[nH]c3ccc(NC(=O)Cc4ccncc4)cc23)c1 | 50000 |
| 4300 | – | – | – | NS(=O)(=O)c1cccc(-c2n[nH]c3cc(NC(=O)c4cccs4)ccc23)c1 | – |
| 980 | – | – | – | NS(=O)(=O)c1cccc(-c2n[nH]c3ccc(NC(=O)CCc4ccccc4)cc23)c1 | > 50000 |
| 17 | – | – | – | CCc1cccc(CC)c1CC(=O)Nc1ccc2[nH]nc(-c3cccc(S(N)(=O)=O)c3)c2c1 | 180 |
| 30 | 3200 | 2400 | – | CO[C@@H](C(=O)Nc1ccc2[nH]nc(-c3cccc(S(N)(=O)=O)c3)c2c1)c1ccccc1 | 850 |
| 90 | – | – | – | NS(=O)(=O)c1cccc(-c2n[nH]c3ccc(NC(=O)Cc4ccccn4)cc23)c1 | 6890 |
| 280 | – | – | – | NS(=O)(=O)c1cccc(-c2n[nH]c3ccc(NC(=O)c4cccs4)cc23)c1 | – |
| > 5000 | – | – | – | Cc1ccccc1NC(=O)Cc1ccc2[nH]nc(-c3cccc(S(N)(=O)=O)c3)c2c1 | > 50000 |
| 24 | – | – | – | CCC(C(=O)Nc1ccc2[nH]nc(-c3cccc(S(N)(=O)=O)c3)c2c1)c1ccccc1 (racemic) | 1300 |
| 26 | 2200 | 2500 | – | COC(C(=O)Nc1ccc2[nH]nc(-c3cccc(S(N)(=O)=O)c3)c2c1)c1ccccc1 (racemic) | 1060 |
| 26 | 2200 | 3600 | – | CO[C@H](C(=O)Nc1ccc2[nH]nc(-c3cccc(S(N)(=O)=O)c3)c2c1)c1ccccc1 | 800 |

Second part, the compound before the results:

| SMILES | IC50 [1] [nM] | GI50 (MDA-MB-468) [nM] | GI50 (A549) [nM] | IC50 [3] [nM] | GI50 [2] [nM] |
| --- | --- | --- | --- | --- | --- |
| CC(=O)Nc1ccc2c(-c3cccc(S(N)(=O)=O)c3)n[nH]c2c1 | 18000 | – | – | – | – |
| CC(C)C(C(=O)Nc1ccc2[nH]nc(-c3cccc(S(N)(=O)=O)c3)c2c1)c1ccccc1 (racemic) | 46 | – | – | – | – |
| CN(C)[C@@H](C(=O)Nc1ccc2[nH]nc(-c3cccc(S(N)(=O)=O)c3)c2c1)c1ccccc1 | 15 | 1300 | 3400 | – | 1100 |
| NS(=O)(=O)c1cccc(-c2n[nH]c3ccc(NC(=O)C(c4ccccc4)C4CCCCC4)cc23)c1 (racemic) | 61 | – | – | – | 430 |
| NC(=O)c1cccc(-c2n[nH]c3cccc(Cl)c23)c1 | – | – | – | 17000 | – |
| COc1cccc2[nH]nc(-c3cccc(S(N)(=O)=O)c3)c12 | 2300 | – | – | – | – |
| COc1ccc2[nH]nc(-c3cccc(S(N)(=O)=O)c3)c2c1 | 600 | – | – | – | – |
| CCc1cccc(CC)c1NC(=O)N(C)c1ccc2[nH]nc(-c3cccc(S(N)(=O)=O)c3)c2c1 | > 50000 | – | – | – | > 50000 |
| CN(C)[C@H](C(=O)Nc1ccc2[nH]nc(-c3cccc(S(N)(=O)=O)c3)c2c1)c1ccccc1 | 11 | 840 | 830 | – | 520 |
| NS(=O)(=O)c1cccc(-c2n[nH]c3cc(-c4ccccc4)ccc23)c1 | 5400 | – | – | – | – |
| NS(=O)(=O)c1cccc(-c2n[nH]c3ccc(OCCc4cccs4)cc23)c1 | 380 | – | – | – | 750 |
| NS(=O)(=O)c1cccc(-c2n[nH]c3ccc(C(=O)NC(c4ccccc4)C4CC4)cc23)c1 (racemic) | 16 | – | – | – | – |
| NS(=O)(=O)c1ccc(-c2n[nH]c3cccc(Cl)c23)cc1 | – | – | – | 18000 | – |
| NCc1cccc(-c2n[nH]c3cccc(Cl)c23)c1 | – | – | – | > 50000 | – |
| NS(=O)(=O)c1cccc(-c2n[nH]c3ccc(C(=O)NCc4ccccc4)cc23)c1 | 90 | – | – | – | 1800 |
| NS(=O)(=O)c1cccc(-c2n[nH]c3cccc(-c4c(F)cccc4F)c23)c1 | 1400 | – | – | – | – |
| NS(=O)(=O)c1cccc(-c2n[nH]c3ccc(NC(=O)C(c4ccccc4)N4CCCC4)cc23)c1 (racemic) | 8.9 | 350 | 230 | – | 110 |
| Oc1c2ccccc2c2c3c(cccc13)N=N2 [SP-600125] | – | – | – | 2500 | – |
| NS(=O)(=O)c1cccc(-c2n[nH]c3ccc(C(=O)NCc4cccs4)cc23)c1 | 33 | – | – | – | 1800 |
| NS(=O)(=O)c1cccc(-c2n[nH]c3ccccc23)c1 | 1600 | – | – | 2600 | – |
| NS(=O)(=O)c1cccc(-c2n[nH]c3cccc(Cl)c23)c1 | 1900 | – | – | 1800 | – |

| SMILES | IC50 [1] [nM] | GI50 (MDA-MB-468) [nM] | GI50 (A549) [nM] | IC50 [3] [nM] | GI50 [2] [nM] |
| --- | --- | --- | --- | --- | --- |
| NS(=O)(=O)c1cccc(-c2n[nH]c3ccc(C(=O)NC(c4ccsc4)C4CC4)cc23)c1 (racemic) | 4 | – | – | – | 610 |
| NS(=O)(=O)c1cccc(-c2n[nH]c3ccc(OCc4ccccc4)cc23)c1 | 580 | – | – | – | – |
| Cc1cccc(CS(=O)(=O)Nc2ccc3[nH]nc(-c4cccc(S(N)(=O)=O)c4)c3c2)c1 | 330 | – | – | – | 28000 |
| CCc1cccc(CC)c1CNC(=O)c1ccc2[nH]nc(-c3cccc(S(N)(=O)=O)c3)c2c1 | 80 | – | – | – | 700 |
| CCc1cccc(CC)c1NS(=O)(=O)Nc1ccc2[nH]nc(-c3cccc(S(N)(=O)=O)c3)c2c1 | 2600 | – | – | – | 50000 |
| NS(=O)(=O)c1cccc(-c2n[nH]c3ccc(NS(=O)(=O)c4cccs4)cc23)c1 | 340 | – | – | – | 3400 |
| CN(C)C(C(=O)Nc1ccc2[nH]nc(-c3cccc(S(N)(=O)=O)c3)c2c1)c1ccccc1 (racemic) | 12 | 1400 | 1700 | – | 660 |
| COc1cc(N2CCC(O)CC2)ccc1Nc1nc(Nc2ccccc2S(=O)(=O)C(C)C)c2cc[nH]c2n1 | – | – | – | 370 | – |
| Cc1ccccc1CNC(=O)c1ccc2[nH]nc(-c3cccc(S(N)(=O)=O)c3)c2c1 | 18 | – | – | – | 1800 |
| NS(=O)(=O)c1cccc(-c2n[nH]c3ccc(-c4ccccc4)cc23)c1 | 4300 | – | – | – | – |
| O=Cc1ccc2c(-c3cccnc3)n[nH]c2c1 | – | – | – | 12000 | – |
| NS(=O)(=O)c1cccc(-c2n[nH]c3ccc(C(=O)NC(c4ccccc4)C4CCCCC4)cc23)c1 (racemic) | 47 | – | – | – | 810 |
| CN(Cc1ccccc1)C(=O)c1ccc2[nH]nc(-c3cccc(S(N)(=O)=O)c3)c2c1 | 250 | – | – | – | 180 |
| NS(=O)(=O)c1cccc(-c2n[nH]c3ccc(NS(=O)(=O)Nc4ccccc4)cc23)c1 | 710 | – | – | – | 6890 |
| CNC(=O)c1ccc2c(-c3cccc(S(N)(=O)=O)c3)n[nH]c2c1 | 11000 | – | – | – | – |
| NS(=O)(=O)c1cccc(-c2n[nH]c3ccc(C(=O)NC4(c5ccccc5)CC4)cc23)c1 | 35 | – | – | – | 3300 |
| NS(=O)(=O)c1cccc(-c2n[nH]c3ccc(NC(=O)C(c4ccccc4)N4CCCCC4)cc23)c1 (racemic) | 10 | 690 | 400 | – | 270 |
| N#Cc1ccc2c(/C=C/c3ccncc3)n[nH]c2c1 | – | – | – | 5000 | – |
| NS(=O)(=O)c1cccc(-c2n[nH]c3ccc(NC(=O)C(c4ccccc4)C4CCCC4)cc23)c1 (racemic) | 53 | – | – | – | 630 |
| NS(=O)(=O)c1cccc(-c2n[nH]c3ccc(CNC(=O)c4ccccc4)cc23)c1 | 550 | – | – | – | 700 |
